{
  "source": "paper PMC5438822",
  "about": "“Pharmacokinetics and safety of carfilzomib in patients with relapsed multiple myeloma and end-stage renal disease (ESRD): an open-label, single-arm, phase I study” (Cancer Chemotherapy and Pharmacology, 2017)",
  "key": {"[1]": {"test": "Plasma pharmacokinetics of carfilzomib and its major metabolites after 30-min IV infusion, normal renal function vs ESRD", "type": "in vivo, human", "conditions": "for AUC0−inf Geo mean ratio (90% CI), ESRD vs normal renal function / AUC0−last Geo mean ratio (90% CI), ESRD vs normal renal function: ANOVA of ln-transformed data, ESRD test, normal reference", "method": "(§1) This was a phase I, multicenter (13 sites in US, Canada, and Australia), open-label, nonrandomized, comparative PK study of carfilzomib in patients with multiple myeloma and normal renal function or ESRD on hemodialysis (NCT01949532). The primary objective was to assess the influence of ESRD on AUC, from time 0 to the last concentration measured (AUC0−last) and from time 0 extrapolated to infinity (AUC0−inf) of carfilzomib 56 mg/m^2 at cycle 2 day 1 in patients with relapsed multiple myeloma. Secondary objectives were to compare between patient cohorts additional PK parameters of carfilzomib at cycle 2 day 1, including C max, time to maximum concentration (t max), clearance, terminal half-life (t 1/2), volume of distribution at steady state, and mean residence time; compare between patient cohorts PK parameters of carfilzomib 27 mg/m^2 at cycle 1 day 16; evaluate PK parameters for carfilzomib’s major metabolites (PR-389/M14, PR-413/M15, and PR-519/M16) to help characterize metabolism and elimination profile of carfilzomib; and evaluate the safety and tolerability of carfilzomib. Exploratory objectives included evaluation of ORR (defined as PR or better) and clinical benefit rate [CBR; defined as ORR + minimal response (MR)], and estimation of duration of response (DOR) and PFS.\n(§2) Patients received IV carfilzomib (as a 30-min infusion) in 28-day cycles (Fig. 1). All received carfilzomib 20 mg/m^2 on days 1 and 2 of cycle 1 and escalated to 27 mg/m^2 on day 8, 9, 15, and 16 of cycle 1. If tolerated, carfilzomib dose was increased to 56 mg/m^2 starting on day 1 of cycle 2 and continued on the same schedule (day 1, 2, 8, 9, 15, and 16 of each cycle). Oral or IV dexamethasone 8 mg/day was given on the same days as carfilzomib during cycles 1 and 2 but was optional in cycles 3 and beyond. IV hydration was given immediately prior to and following carfilzomib dosing during cycle 1 and at the investigator’s discretion in cycle 2 and higher; hydration consisted of 250 to 500 mL IV normal saline or other appropriate IV fluid.\n(§3) Blood samples were collected for PK assessments for carfilzomib and its major metabolites (metabolites PR-389/M14, PR-413/M15, and PR-519/M16) (Fig. 1). Samples were collected at the following timepoints on cycle 1 day 16 (27 mg/m^2 dose) and cycle 2 day 1 (56 mg/m^2 dose) or on subsequent infusion days when the intended dose levels were administered: before infusion; 15 min after start of infusion; within 2 min before the end of infusion; and at 5, 15, and 30 min (±2 min for all timepoints ≤30 min), and 1, 2, and 4 h (±5 min for all timepoints >30 min) after the end of the infusion. Safety was assessed throughout the study and included the monitoring of AEs, clinical laboratory evaluations, electrocardiograms, and vital signs. Each evaluable patient’s response to treatment or progression over the course of the study was evaluated by the investigator according to the International Myeloma Working Group, International Uniform Response Criteria for Multiple Myeloma and European Group for Blood and Marrow Transplantation at day 1 of each cycle.\nDescriptive statistics were provided for selected demographics, safety, and PK data, with all statistical summaries and analyses performed in SAS^Ⓡ version 9.1 or higher (SAS Institute Inc., Cary, NC). The primary PK analyses and other PK parameters were performed using the PK-evaluable population. Plasma PK parameters of carfilzomib and metabolites were computed in Phoenix WinNonlin^Ⓡ Enterprise version 5.2 or higher. To assess the effect of ESRD relative to normal renal function on PK parameters (AUC0−last and AUC0−inf), an analysis of variance (ANOVA) of the ln-transformed plasma PK parameters was performed, with renal impairment as a fixed effect. […]"}, "[2]": {"test_system": "patients with relapsed multiple myeloma", "test": "Best overall response as determined by investigator (IMWG / EBMT criteria), DOR and PFS", "type": "in vivo, human", "conditions": "for Best overall response: Minimal response / Best overall response: Complete response / Best overall response: Not evaluable / Best overall response: Partial response / Best overall response: Progressive disease / Best overall response: Stable disease / Best overall response: Stringent complete response / Best overall response: Very good partial response / Clinical benefit rate (95% CI), minimal response or better / Overall response rate (95% CI), partial response or better: response-evaluable, carfilzomib 20/27/56 mg/m^2 IV; for Best overall response: Minimal response: EBMT criteria", "method": "as §1, §2, §3\n(§4) Safety was assessed for patients who received ≥1 dose of carfilzomib. AEs were graded using the National Cancer Institute Common Terminology Criteria for Adverse Events version 4.03 and mapped to preferred term and system organ class using the Medical Dictionary for Regulatory Activities (MedDRA). ORR defined as the proportion of patients for whom the best overall response was stringent complete response, complete response, very good PR, or PR, along with the associated 95% exact binomial CI (Clopper–Pearson method) was determined. CBR, defined as the proportion of patients with the best overall response of MR or better, was likewise determined along with the 95% exact binomial CI."}, "[3]": {"test_system": "patients with relapsed multiple myeloma", "test": "Safety: adverse events (NCI CTCAE v4.03), discontinuations, deaths", "type": "in vivo, human", "conditions": "for treatment discontinuation due to disease progression: as of data cutoff", "method": "as §2, §3, §4"}, "[4]": {"conditions": "cited from earlier work", "text": "Carfilzomib, an epoxyketone proteasome inhibitor, is approved in the United States (US), Canada, Australia, European Union (EU), and other jurisdictions for the treatment of relapsed or refractory multiple myeloma. […] Following intravenous (IV) administration, carfilzomib is rapidly and extensively metabolized in patients with multiple myeloma or solid tumors. Similar to the metabolic profile in rats and monkeys, ..."}, "[5]": {"test_system": "relapsed multiple myeloma", "conditions": "carfilzomib 56 mg/m^2 infused for 30 min with or without dexamethasone, cited from earlier work", "method": "The 50% ORR in the overall population was similar to those previously reported in trials of carfilzomib 56 mg/m^2 infused for 30 min with or without dexamethasone for relapsed multiple myeloma (50% in a phase I trial and 55% in a phase II trial). Together, the results of this study support current recommendations for carfilzomib that no starting dose adjustment is warranted for patients with baseline renal impairment including those with ESRD [8, 20]."}, "[6]": {"conditions": "total efficacy-evaluable population"}},
  "note": "Read-outs that look alike come from different tables or passages of the source.",
  "data": [
    {"molecule": "CC(C)C[C@H](NC(=O)[C@H](CCc1ccccc1)NC(=O)CN1CCOCC1)C(=O)N[C@@H](Cc1ccccc1)C(=O)N[C@@H](CC(C)C)C(=O)[C@@]1(C)CO1", "note": "[carfilzomib]", "values": [
      {"measurement": "AUC0−inf Geo mean ratio (90% CI), ESRD vs normal renal function", "setting": "[1]; 27 mg/m^2", "value": "138.09 (102.77–185.54) %"},
      {"measurement": "AUC0−last Geo mean ratio (90% CI), ESRD vs normal renal function", "setting": "[1]; 27 mg/m^2", "value": "139.72 (112.41–173.66) %"},
      {"measurement": "AUC0−inf Geo mean ratio (90% CI), ESRD vs normal renal function", "setting": "[1]; 56 mg/m^2, cycle 2 day 1", "value": "133.62 (70.93–251.73) %"},
      {"measurement": "AUC0−last Geo mean ratio (90% CI), ESRD vs normal renal function", "setting": "[1]; 56 mg/m^2, cycle 2 day 1", "value": "132.75 (70.60–249.63) %"},
      {"measurement": "change in mean AUC0−last and C max between 27 and 56 mg/m^2", "setting": "[1]; in vivo", "value": "dose-dependent increase"},
      {"measurement": "concentration decline in the first 15 min following the end of the infusion", "setting": "[1]; in vivo", "value": "two orders of magnitude"},
      {"measurement": "mean terminal t 1/2", "setting": "[1]; in vivo", "value": "24 to 72", "unit": "min"},
      {"measurement": "time of peak concentrations after start of infusion", "setting": "[1]; in vivo, iv", "value": "approximately 0.5 h"},
      {"measurement": "patients with a PFS of ≥6 months", "setting": "[2]; ESRD", "value": "4 of 10"},
      {"measurement": "Best overall response: Minimal response", "setting": "[2]; ESRD, n = 10", "value": "0 (0.0) n (%)"},
      {"measurement": "Best overall response: Complete response", "setting": "[2]; ESRD, n = 10", "value": "0 (0.0) n (%)"},
      {"measurement": "Best overall response: Not evaluable", "setting": "[2]; ESRD, n = 10", "value": "0 (0.0) n (%)"},
      {"measurement": "Best overall response: Partial response", "setting": "[2]; ESRD, n = 10", "value": "5 (50.0) n (%)"},
      {"measurement": "Best overall response: Progressive disease", "setting": "[2]; ESRD, n = 10", "value": "2 (20.0) n (%)"},
      {"measurement": "Best overall response: Stable disease", "setting": "[2]; ESRD, n = 10", "value": "2 (20.0) n (%)"},
      {"measurement": "Best overall response: Stringent complete response", "setting": "[2]; ESRD, n = 10", "value": "0 (0.0) n (%)"},
      {"measurement": "Best overall response: Very good partial response", "setting": "[2]; ESRD, n = 10", "value": "1 (10.0) n (%)"},
      {"measurement": "Clinical benefit rate (95% CI), minimal response or better", "setting": "[2]; ESRD, n = 10", "value": "60.0 (26.2–87.8) %"},
      {"measurement": "Overall response rate (95% CI), partial response or better", "setting": "[2]; ESRD, n = 10", "value": "60.0 (26.2–87.8) %"},
      {"measurement": "patients with a PFS of ≥6 months", "setting": "[2]; normal renal function", "value": "6 of 14"},
      {"measurement": "Best overall response: Minimal response", "setting": "[2]; normal renal function, n = 14", "value": "1 (7.1) n (%)"},
      {"measurement": "Best overall response: Complete response", "setting": "[2]; normal renal function, n = 14", "value": "0 (0.0) n (%)"},
      {"measurement": "Best overall response: Partial response", "setting": "[2]; normal renal function, n = 14", "value": "3 (21.4) n (%)"},
      {"measurement": "Best overall response: Progressive disease", "setting": "[2]; normal renal function, n = 14", "value": "2 (14.3) n (%)"},
      {"measurement": "Best overall response: Stable disease", "setting": "[2]; normal renal function, n = 14", "value": "3 (21.4) n (%)"},
      {"measurement": "Best overall response: Stringent complete response", "setting": "[2]; normal renal function, n = 14", "value": "0 (0.0) n (%)"},
      {"measurement": "Best overall response: Very good partial response", "setting": "[2]; normal renal function, n = 14", "value": "3 (21.4) n (%)"},
      {"measurement": "Clinical benefit rate (95% CI), minimal response or better", "setting": "[2]; normal renal function, n = 14", "value": "50.0 (23.0–77.0) %"},
      {"measurement": "Overall response rate (95% CI), partial response or better", "setting": "[2]; normal renal function, n = 14", "value": "42.9 (17.7–71.1) %"},
      {"measurement": "patients with a PFS >12 months", "setting": "[2]; [6]", "value": 4, "unit": "patients"},
      {"measurement": "patients with a PFS of ≥6 months", "setting": "[2]; [6]", "value": "Ten"},
      {"measurement": "Best overall response: Minimal response", "setting": "[2]; total, n = 24", "value": "1 (4.2) n (%)"},
      {"measurement": "Best overall response: Complete response", "setting": "[2]; total, n = 24", "value": "0 (0.0) n (%)"},
      {"measurement": "Best overall response: Not evaluable", "setting": "[2]; total, n = 24", "value": "2 (8.3) n (%)"},
      {"measurement": "Best overall response: Partial response", "setting": "[2]; total, n = 24", "value": "8 (33.3) n (%)"},
      {"measurement": "Best overall response: Progressive disease", "setting": "[2]; total, n = 24", "value": "4 (16.7) n (%)"},
      {"measurement": "Best overall response: Stable disease", "setting": "[2]; total, n = 24", "value": "5 (20.8) n (%)"},
      {"measurement": "Best overall response: Stringent complete response", "setting": "[2]; total, n = 24", "value": "0 (0.0) n (%)"},
      {"measurement": "Best overall response: Very good partial response", "setting": "[2]; total, n = 24", "value": "4 (16.7) n (%)"},
      {"measurement": "Clinical benefit rate (95% CI), minimal response or better", "setting": "[2]; total, n = 24", "value": "54.2 (32.8–74.4) %"},
      {"measurement": "Overall response rate (95% CI), partial response or better", "setting": "[2]; total, n = 24", "value": "50.0 (29.1–70.9) %"},
      {"measurement": "treatment discontinuation due to disease progression", "setting": "[3]; ESRD", "value": 36, "unit": "%"},
      {"measurement": "patients with treatment-related AEs that led to study discontinuation", "setting": "[3]; in vivo", "value": "Four"},
      {"measurement": "treatment discontinuation due to disease progression", "setting": "[3]; normal renal function", "value": 20, "unit": "%"},
      {"measurement": "patients who died during the study", "setting": "[3]; total, none considered related to carfilzomib treatment", "value": "Five"},
      {"measurement": "half-life", "setting": "[4]; IV administration at doses from 15 to 56 mg/m^2, patients", "value": "≤ 60", "unit": "min"},
      {"measurement": "dose excreted via urinary metabolites", "setting": "[4]; within 24 h", "value": "approximately 25%"},
      {"measurement": "urinary and fecal excretion of the parent compound", "setting": "[4]; within 24 h", "value": "0.3 % of the total dose"},
      {"measurement": "ORR", "setting": "[5]; phase I trial", "value": 50, "unit": "%"},
      {"measurement": "ORR", "setting": "[5]; phase II trial", "value": 55, "unit": "%"}
    ]}
  ]
}
